Values quoted from earlier work as cited in patent US11124883B2, “Method for inhibiting metal corrosion using a benzimidazole-containing composition” (priority 2017, dated 2021).

Conditions: at 20° C., according to DrugBank

For `c1ccc2[nH]cnc2c1` [unsubstituted benzimidazole, benzimidazole], the water solubility is listed as “about 20 g/L”.
